From PubChem BioAssay (NCI)
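96-well plates; 48 h exposure; 5 concentrations. Endpoints by linear interpolation between flanking doses. Not reached: highest tested concentration assigned. TGI: concentration producing complete growth inhibition.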

Legend:
Assay in all cases: growth of human tumour cells (NCI), 48 h
CCRF-CEM leukemia = system: CCRF-CEM leukemia
SF-539 CNS = system: SF-539 CNS
T-47D breast = system: T-47D breast
MALME-3M melanoma = system: MALME-3M melanoma
IGROV1 ovarian = system: IGROV1 ovarian
U251 CNS = system: U251 CNS
TK-10 renal = system: TK-10 renal
ACHN renal = system: ACHN renal
SK-MEL-5 melanoma = system: SK-MEL-5 melanoma
SK-OV-3 ovarian = system: SK-OV-3 ovarian
K-562 leukemia = system: K-562 leukemia
MDA-MB-231 breast = system: MDA-MB-231 breast
UACC-62 melanoma = system: UACC-62 melanoma
HOP-62 NSCLC = system: HOP-62 NSCLC
NCI/ADR-RES ovarian = system: NCI/ADR-RES ovarian
SW-620 colon = system: SW-620 colon
MOLT-4 leukemia = system: MOLT-4 leukemia
BT-549 breast = system: BT-549 breast
SF-268 CNS = system: SF-268 CNS
786-0 renal = system: 786-0 renal
EKVX NSCLC = system: EKVX NSCLC
M19-MEL melanoma = system: M19-MEL melanoma
CAKI-1 renal = system: CAKI-1 renal
NCI-H522 lung = system: NCI-H522 lung
LOX IMVI melanoma = system: LOX IMVI melanoma
SNB-19 CNS = system: SNB-19 CNS
M14 melanoma = system: M14 melanoma
SN12C renal = system: SN12C renal
MDA-MB-435 = system: MDA-MB-435
HCT-116 colon = system: HCT-116 colon
KM12 colon = system: KM12 colon
SK-MEL-2 melanoma = system: SK-MEL-2 melanoma
DMS 114 small cell lung = system: DMS 114 small cell lung
A498 renal = system: A498 renal
OVCAR-4 ovarian = system: OVCAR-4 ovarian
HCT-15 colon = system: HCT-15 colon
COLO 205 colon = system: COLO 205 colon
DLD-1 colon = system: DLD-1 colon
MDA-N = system: MDA-N
SNB-78 CNS = system: SNB-78 CNS
RPMI-8226 leukemia = system: RPMI-8226 leukemia
SNB-75 CNS = system: SNB-75 CNS
NCI-H460 lung = system: NCI-H460 lung
SK-MEL-28 melanoma = system: SK-MEL-28 melanoma
RXF 393 renal = system: RXF 393 renal
OVCAR-8 ovarian = system: OVCAR-8 ovarian
UO-31 renal = system: UO-31 renal
LXFL 529 NSCLC = system: LXFL 529 NSCLC
NCI-H226 lung = system: NCI-H226 lung
A549 NSCLC = system: A549 NSCLC
HS 578T breast = system: HS 578T breast
SF-295 CNS = system: SF-295 CNS
HL-60(TB) leukemia = system: HL-60(TB) leukemia
DMS 273 small cell lung = system: DMS 273 small cell lung
PC-3 prostate = system: PC-3 prostate
KM20L2 colon = system: KM20L2 colon
HOP-18 NSCLC = system: HOP-18 NSCLC
SR leukemia = system: SR leukemia
OVCAR-5 ovarian = system: OVCAR-5 ovarian
UACC-257 melanoma = system: UACC-257 melanoma
XF 498 CNS = system: XF 498 CNS
HCC-2998 colon = system: HCC-2998 colon
HT29 colon = system: HT29 colon
DU-145 prostate = system: DU-145 prostate
HOP-92 NSCLC = system: HOP-92 NSCLC
NCI-H23 lung = system: NCI-H23 lung
OVCAR-3 ovarian = system: OVCAR-3 ovarian
MCF7 breast = system: MCF7 breast

O=C(CNc1ccc2c(=S)c3ccccc3[nH]c2c1)Nc1ccccc1-c1ccccc1NC(=O)CNc1ccc2c(=S)c3ccccc3[nH]c2c1
TGI (CCRF-CEM leukemia): 22.8 µM
TGI (SF-539 CNS): 52 µM
TGI (T-47D breast): > 50.1 µM
TGI (MALME-3M melanoma): 31.7 µM
TGI (IGROV1 ovarian): 61 µM
TGI (U251 CNS): 42.3 µM
TGI (TK-10 renal): 43.9 µM
TGI (ACHN renal): 28.5 µM
TGI (SK-MEL-5 melanoma): 35.3 µM
TGI (SK-OV-3 ovarian): 48.5 µM
TGI (K-562 leukemia): > 53.6 µM
TGI (MDA-MB-231 breast): > 51.7 µM
TGI (UACC-62 melanoma): 44.3 µM
TGI (HOP-62 NSCLC): 48.4 µM
TGI (NCI/ADR-RES ovarian): > 63 µM
TGI (SW-620 colon): 39.5 µM
TGI (MOLT-4 leukemia): 46.7 µM
TGI (BT-549 breast): 56.7 µM
TGI (SF-268 CNS): 52.8 µM
TGI (786-0 renal): 32.9 µM
TGI (EKVX NSCLC): 65.6 µM
TGI (M19-MEL melanoma): > 55.5 µM
TGI (CAKI-1 renal): 75.6 µM
TGI (NCI-H522 lung): 24.1 µM
TGI (LOX IMVI melanoma): 55.6 µM
TGI (SNB-19 CNS): 41 µM
TGI (M14 melanoma): 41.4 µM
TGI (SN12C renal): 53.7 µM
TGI (MDA-MB-435): > 52 µM
TGI (HCT-116 colon): 43.3 µM
TGI (KM12 colon): 42.7 µM
TGI (SK-MEL-2 melanoma): 34.4 µM
TGI (DMS 114 small cell lung): 36.6 µM
TGI (A498 renal): 55.6 µM
TGI (OVCAR-4 ovarian): 45.2 µM
TGI (HCT-15 colon): 49.5 µM
TGI (COLO 205 colon): 35.8 µM
TGI (DLD-1 colon): 23.9 µM
TGI (MDA-N): > 51.3 µM
TGI (SNB-78 CNS): 82.9 µM
TGI (RPMI-8226 leukemia): 49.9 µM
TGI (SNB-75 CNS): 71.9 µM
TGI (NCI-H460 lung): 36.9 µM
TGI (SK-MEL-28 melanoma): 41.2 µM
TGI (RXF 393 renal): 56.6 µM
TGI (OVCAR-8 ovarian): 55.7 µM
TGI (UO-31 renal): 31.4 µM
TGI (LXFL 529 NSCLC): 24.6 µM
TGI (NCI-H226 lung): 54.6 µM
TGI (A549 NSCLC): 55.5 µM
TGI (HS 578T breast): > 77.7 µM
TGI (SF-295 CNS): 50.8 µM
TGI (HL-60(TB) leukemia): 13.4 µM
TGI (DMS 273 small cell lung): > 76.3 µM
TGI (PC-3 prostate): > 49.8 µM
TGI (KM20L2 colon): 47.4 µM
TGI (HOP-18 NSCLC): 29.9 µM
TGI (SR leukemia): 41.1 µM
TGI (OVCAR-5 ovarian): 53.5 µM
TGI (UACC-257 melanoma): 45.3 µM
TGI (XF 498 CNS): 41.1 µM
TGI (HCC-2998 colon): 31.5 µM
TGI (HT29 colon): 48.4 µM
TGI (DU-145 prostate): 37.4 µM
TGI (HOP-92 NSCLC): 51.2 µM
TGI (NCI-H23 lung): 32.3 µM
TGI (OVCAR-3 ovarian): 55 µM
TGI (MCF7 breast): > 52.7 µM

NCc1c(C(N)=O)ncn1Cc1ccccc1
TGI (CCRF-CEM leukemia): > 100 µM
TGI (SF-539 CNS): > 100 µM
TGI (IGROV1 ovarian): > 100 µM
TGI (U251 CNS): > 100 µM
TGI (TK-10 renal): > 100 µM
TGI (ACHN renal): > 100 µM
TGI (SK-MEL-5 melanoma): > 100 µM
TGI (SK-OV-3 ovarian): > 100 µM
TGI (K-562 leukemia): > 100 µM
TGI (UACC-62 melanoma): > 100 µM
TGI (HOP-62 NSCLC): > 100 µM
TGI (SW-620 colon): > 100 µM
TGI (MOLT-4 leukemia): > 100 µM
TGI (786-0 renal): > 100 µM
TGI (EKVX NSCLC): > 100 µM
TGI (M19-MEL melanoma): > 100 µM
TGI (CAKI-1 renal): > 100 µM
TGI (LOX IMVI melanoma): > 100 µM
TGI (SNB-19 CNS): > 100 µM
TGI (M14 melanoma): > 100 µM
TGI (SN12C renal): > 100 µM
TGI (HCT-116 colon): > 100 µM
TGI (DMS 114 small cell lung): > 100 µM
TGI (A498 renal): > 100 µM
TGI (OVCAR-4 ovarian): > 100 µM
TGI (HCT-15 colon): > 100 µM
TGI (COLO 205 colon): > 100 µM
TGI (SNB-78 CNS): > 100 µM
TGI (RPMI-8226 leukemia): > 100 µM
TGI (SNB-75 CNS): > 100 µM
TGI (NCI-H460 lung): > 100 µM
TGI (SK-MEL-28 melanoma): > 100 µM
TGI (RXF 393 renal): > 100 µM
TGI (OVCAR-8 ovarian): > 100 µM
TGI (LXFL 529 NSCLC): > 100 µM
TGI (A549 NSCLC): > 100 µM
TGI (SF-295 CNS): > 100 µM
TGI (HL-60(TB) leukemia): > 100 µM
TGI (DMS 273 small cell lung): > 100 µM
TGI (KM20L2 colon): > 100 µM
TGI (HOP-18 NSCLC): > 100 µM
TGI (UACC-257 melanoma): > 100 µM
TGI (XF 498 CNS): > 100 µM
TGI (HCC-2998 colon): > 100 µM
TGI (HT29 colon): > 100 µM
TGI (HOP-92 NSCLC): > 100 µM
TGI (NCI-H23 lung): > 100 µM
TGI (OVCAR-3 ovarian): > 100 µM

O=C1C(=O)N(c2nccs2)C(=O)C(=O)C1c1nc2ccccc2s1
TGI (SF-539 CNS): > 100 µM
TGI (MALME-3M melanoma): > 100 µM
TGI (IGROV1 ovarian): > 100 µM
TGI (U251 CNS): > 100 µM
TGI (TK-10 renal): > 100 µM
TGI (ACHN renal): > 100 µM
TGI (SK-OV-3 ovarian): > 100 µM
TGI (UACC-62 melanoma): > 100 µM
TGI (HOP-62 NSCLC): > 100 µM
TGI (SW-620 colon): > 100 µM
TGI (SF-268 CNS): > 100 µM
TGI (786-0 renal): > 100 µM
TGI (EKVX NSCLC): > 100 µM
TGI (M19-MEL melanoma): > 100 µM
TGI (CAKI-1 renal): > 100 µM
TGI (LOX IMVI melanoma): > 100 µM
TGI (SNB-19 CNS): > 100 µM
TGI (M14 melanoma): > 100 µM
TGI (SN12C renal): > 100 µM
TGI (HCT-116 colon): > 100 µM
TGI (KM12 colon): > 100 µM
TGI (SK-MEL-2 melanoma): > 100 µM
TGI (DMS 114 small cell lung): > 100 µM
TGI (OVCAR-4 ovarian): > 100 µM
TGI (HCT-15 colon): > 100 µM
TGI (COLO 205 colon): > 100 µM
TGI (DLD-1 colon): > 100 µM
TGI (SNB-78 CNS): > 100 µM
TGI (RPMI-8226 leukemia): > 100 µM
TGI (SNB-75 CNS): > 100 µM
TGI (NCI-H460 lung): > 100 µM
TGI (SK-MEL-28 melanoma): > 100 µM
TGI (RXF 393 renal): > 100 µM
TGI (OVCAR-8 ovarian): > 100 µM
TGI (UO-31 renal): > 100 µM
TGI (LXFL 529 NSCLC): > 100 µM
TGI (NCI-H226 lung): > 100 µM
TGI (A549 NSCLC): > 100 µM
TGI (SF-295 CNS): > 100 µM
TGI (DMS 273 small cell lung): > 100 µM
TGI (KM20L2 colon): > 100 µM
TGI (HOP-18 NSCLC): > 100 µM
TGI (OVCAR-5 ovarian): > 100 µM
TGI (UACC-257 melanoma): > 100 µM
TGI (XF 498 CNS): > 100 µM
TGI (HCC-2998 colon): > 100 µM
TGI (HT29 colon): > 100 µM
TGI (HOP-92 NSCLC): > 100 µM
TGI (NCI-H23 lung): > 100 µM
TGI (OVCAR-3 ovarian): > 100 µM
